This note sets out measurements from PubChem BioAssay (NCI).

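How tested: cells in 96-well plates exposed to compound for 48 hours at five concentrations. Here, GI50 denotes the concentration required for 50% inhibition of growth. TGI marks complete inhibition of growth.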 Where only a bound is given, the exact number is not on record here.

In the experiment the test system is MDA-MB-468 breast. Description: growth of human tumour cells (NCI), 48 h.
On to `CCOC(=O)c1cnc2c(cnn2CC)c1NN=C(C)C`, for which the GI50 is 31.3 µM and the TGI was above 100 µM.

Regarding `CCC(C)CC(CC)NCCN1CCN(C(CC)CC(C)CC)C1=S` (stereo unspecified), the GI50 was 1.54 µM and the TGI is 2.89 µM.

For `CC1(C)CC[C@]2(C(=O)O)CC[C@]3(C)[C@H](CC[C@@H]4[C@@]5(C)CCC(=O)C(C)(C)[C@@H]5CC[C@]43C)[C@H]2[C@H]1OC(=O)C(F)(F)F`, the GI50 is 5.83 µM and the TGI stood at 21.1 µM.

Take `Clc1ccc(-c2cn(-c3ccccc3)c(-c3ccccc3)n2)c(Cl)c1`: the GI50 is above 50 µM and the TGI is above 50 µM.

In the case of `C=C1C(=O)O[C@H]2[C@H]1CC/C(COC(=O)C(=O)c1cn(C)c3ccc(OC)cc13)=C\CC[C@@]1(C)O[C@@H]21`, the GI50 was 1.73 µM and the TGI worked out at 2.92 µM.

On to `COC(=O)[C@]12CC[C@@H](C)[C@H](C)[C@@H]1C1=CC[C@@H]3[C@@]4(C)C=C(O)C(=O)C(C)=C4CC[C@@]3(C)[C@]1(C)CC2`, for which the GI50 was 9.95 µM and the TGI is 26.9 µM.

In the case of `CC12CCC(O)CC1CCC1C2CCC2(C)C(C3=CC(=O)OC3)CCC12` (stereo unspecified), the GI50 was 5.29 µM and the TGI was above 42.9 µM.

Take `COc1ccc(C(=O)N/N=C/c2ccc(O)cc2O)cc1Nc1ccnc(C(F)(F)F)c1`: the GI50 was 0.365 µM and the TGI was determined as 68.1 µM.
